| Compound | melting point [°C] |
| --- | --- |
| COc1cc(C(=O)C=Cc2cc(-c3cccs3)ccc2OC)ccc1O | 142 to 144 |
| COc1ccc(Nc2ccnc(NCCO)c2)cc1 | 164 to 165 |
| C[C@@H](Cn1ncc2ccc(O)c(Br)c21)NC(=O)OCc1ccccc1 | 40 |
| Cc1cc(C#N)cc(C(=O)Nc2ccc(F)cn2)n1 | 204 |
| COc1ccc2ccc(N3C(=O)c4ccccc4C3CC(=O)C3CCCCC3)nc2n1 (centres undefined) | 140 |
| O=C1CCN2C(=O)OCc3cccc1c32 | 130 to 131 |
| COc1ccc(CNC(=O)c2ccccc2)cc1 | 98 to 99 |
| O=C(Nc1ccccc1)NC1CCN(Cc2ccccc2)CC1 | 161 to 162 |
| OCCc1ccc(Nc2ncc3c(n2)-c2ccccc2C(c2ccc(Cl)c(Cl)c2)C3)cc1 (centres undefined) | 94 to 96 |
| COc1ccccc1C1=CCN(C[C@@H](CC2CCCCC2)NC(=O)C2(C)CCCCC2)CC1 | 93 to 95 |
| Cc1ccc2[nH]cc(C3=C(Br)C(=O)N(C)C3=O)c2c1 | 158 to 159 |
| Cn1nc(C2CCN(C#N)CC2)c2ccc(F)cc21 | 133 to 136 |
| COCCOc1ccc(/C=C/C(=O)NS(=O)(=O)c2cccc(C)c2)c(Oc2ncc(C(F)(F)F)cc2Cl)c1 | 147 to 148 |
| CC1(c2ccc([N+](=O)[O-])cc2)OCCO1 | 69 to 71 |
| O=C(Nc1cccnn1)N1CCN(c2nc(-c3cccc(F)c3F)cs2)CC1 | 215 to 216 |
| Nc1ccc2ccccc2c1-c1c(P(=O)(c2ccccc2)c2ccccc2)ccc2ccccc12 | 133 |
| Cc1nc2ccc(N3CC4CNCC4C3)nn2c1-c1ccnc(CN)c1 (centres undefined) | 169 |
| COc1nc(C)nc(NC(=O)NS(=O)(=O)c2ccccc2OCC2(C)OCCO2)n1 | 135 to 136 |
| CCC(O)c1ccc(Cl)c2nc3n(c12)CCCN3c1c(Cl)cc(Cl)cc1Cl (centres undefined) | 213 to 214 |
| COc1ccc(CNc2nnc(N3CCC(CCO)CC3)c3ccc(Cl)cc23)cc1Cl | 153 to 155 |
| COC(=O)c1ccc2ccccc2c1OCC(F)(F)F | 69.5 to 70.5 |
| CCCCCCCCCCCCCCCC(=O)NO | 100 to 101 |
| O=C(c1cccs1)c1cnn2c(-c3cccc(-c4cc[nH]n4)c3)ccnc12 | 129 |
| CCOC(=O)CCCn1c(Nc2cnc(N3CCCC3)cc2C)nc2c(Cl)ccc(C(CC)CC)c21 | 195 to 196 |
| O=C(Nc1ccc(N2CCN(C(C(=O)NCC(F)(F)F)c3ccccc3)CC2)cc1)c1ccccc1-c1ccc(C(F)(F)F)cc1 (centres undefined) | 208 |

| Compound | melting point [°C] |
| --- | --- |
| COc1ccc2oc(-c3nc4c(s3)NCCCC4C(C)=O)cc2c1 (centres undefined) | 147 to 149 |
| COc1cccc(-c2ccc3c(c2)c(C(=O)C(=O)O)cn3Cc2ccc(C(C)(C)C)cc2)c1 | 86 to 87 |
| COc1cc(Cc2cnc(N)nc2N)cc(OC)c1N(C)N=O | 249 to 250 |
| CC1(C)OC[C@@H]([C@@H]2CC(=O)N2)O1 | 91 to 92 |
| c1ccc(Cc2nc(C3CCCCC3)oc2CN2CCc3c([nH]c4ccccc34)C2)cc1 | 200 to 201 |
| CCOC(=O)C1=C(C)NC(C=O)=C(C(=O)OCC)C1c1cc([N+](=O)[O-])ccc1Cl (centres undefined) | 172 to 173 |
| O=C(c1ccccc1)c1ccc2nc(Br)c(C(F)(F)F)nc2c1 | 124 to 126 |
| CC1(C)OC(=O)N(c2cccc(C#CC#N)c2)c2ccccc21 | 212 to 213 |
| CC(=O)OCC(C)C1CCC2C3CC=C4CC(OC(C)=O)CCC4(C)C3CCC12C (centres undefined) | 125 to 127 |
| COC(=O)c1cc(C(=O)c2c(C)c(OC)c3c(OCc4ccccc4)cccn23)ccc1N | 174 |
| CC(C)=CCSC1=C(O)CC(C)(C)CC1=O | 50.5 to 52 |
| CCCc1nc2c(N)nc(C)c(C)c2n1CCCCN1CCCS1(=O)=O | 155 to 161 |
| N#Cc1cnc2c(c1)[nH]c(=O)n2[C@H]1CC[C@H](O)CC1 | 274 to 275 |
| Cc1nc(-c2cccc(CN(C(=O)Nc3ccc(-c4ccccc4S(=O)(=O)NC(C)(C)C)cc3)c3ccccc3)c2)no1 | 191 to 192 |
| CCCCCCCSc1nn2c(=O)c(C)c(Cl)nc2s1 | 79 to 81 |
| CCOCc1nc2c(N)nc3cc(OCCCCCCNS(C)(=O)=O)ccc3c2n1CC(C)(C)NS(C)(=O)=O | 176 to 180 |
| CCCC(=O)Nc1n[nH]c2cc(Cl)c(-c3ccc(OCc4ccccc4)cc3)cc12 | 230 |
| CCCc1c(OCCCSc2ccc(C(=O)NCC(=O)OCC)cc2)ccc(C(C)=O)c1O | 115 to 116 |
| CCCCCCOc1ccc(-c2nc(-c3ccc(OCCCCCC)cc3O)nc(-c3ccc(OCCCCCC)cc3O)n2)c(O)c1 | 125 to 127 |
| Cn1nc(OC(c2ccccc2)c2ccccc2)c(=O)nc1Cl | 182 to 184 |
| O=C(O)C=Cc1ccc(CCc2ccncc2)cc1 | > 300 |
| COc1cc2c(Nc3ccc(Cl)cc3F)ncnc2cc1OCCCn1ccc(=O)cc1 | > 250 |
| c1ccc(C(Oc2ccncc2)c2ccccc2)cc1 | 68 to 70 |
| CCOC(=O)C=C1c2ccccc2C=C(OC)c2sccc21 | 91 to 93 |
| CC(C)(CO)NCC(O)Cn1ccnc1[N+](=O)[O-] (centres undefined) | 114 to 116 |

| Compound | melting point [°C] |
| --- | --- |
| O=C(O)c1cc(-n2c(-c3ccccc3)cc3c2CCC3)ccc1O | 198 to 199 |
| CC(C)(C)c1cc(-c2nnc(N)s2)cc(C(C)(C)C)c1O | 261 |
| O=C(O)c1cc2cc(Cl)ccc2nc1N[C@@H](CO)Cc1ccccc1 | 213 to 216 |
| CN1CC(CCN2CCN(c3ccc(C(F)(F)F)cc3)CC2)OC1=O (centres undefined) | 116 to 117 |
| O=C(c1nc(-c2ccccc2)nc2ccccc12)N1CCC(CCO)CC1 | 146 |
| O=C1NC(=O)C2c3c([nH]c4ccc(Cl)cc34)-c3[nH]c4ccc(Cl)cc4c3C12 (centres undefined) | > 300 |
| COCOc1nn(-c2ccccc2)cc1/C=C/c1nc(N2CCOCC2)sc1C | 162 to 164 |
| O=[N+]([O-])c1c(F)cc(Br)c(OCCCl)c1Br | 56 |
| Brc1ccc2c(ccn2Cc2ccccc2)c1 | 90 |
| CCCCSc1cc(C(=O)O)cc(S(N)(=O)=O)c1Oc1ccccc1 | 222 to 224 |
| Cn1c(C(F)(F)F)cc(=O)n(Cc2cc(Cl)cc(Cl)c2Cl)c1=O | 128 to 130 |
| CC(C)c1n[nH]c2c(Cl)nc(Cl)nc12 | > 250 |
| CSC(=N[N+](=O)[O-])N(Cc1cnc(Cl)s1)C(C)=O | 77 to 78 |
| COc1ccc(Cl)cc1NC(=O)[C@H]1[C@H](c2cccc(C)c2)C1(C)C (relative stereo) | 148 to 150 |
| CC(=O)C(C)(C)COS(=O)(=O)c1ccc(C)cc1 | 49 to 52 |
| CCOC(=O)c1sc(=O)[nH]c1C(F)(F)C(F)(F)F | 95 to 97 |
| CC(C)CCCC(C)NC(=O)CCC(O)c1ccccc1 (centres undefined) | 72 to 89 |
| CC(C)(Oc1ccc(CCCc2cc(-c3ccccc3)no2)cc1)C(=O)O | 66 to 70 |
| CCCCN1CCC(CNC(=O)c2cc(Cl)cc3c2OCCO3)C(O)C1 (centres undefined) | 112 |
| O=c1ncc(Cl)cn1CS(=O)c1ccc(Cl)cc1 (centres undefined) | 262 |
| O=C(OC1CCCCC1)c1ncn2c1[C@@H]1CCCN1C(=O)c1c-2ccc(F)c1Cl | 163 to 166 |
| CCC1CCn2c(nc(-c3ccncn3)cc2=O)N1 (centres undefined) | 226 to 228 |
| CCOc1ccc2c(c1)n(C(C)(C)CC(C)(C)C)c(=O)n2S(=O)(=O)c1ccc(NC(=O)N(CC)CC)cc1OC | 225 |
| CC(C)=COc1ccc2c(C)cc(=O)oc2c1C(=O)C=Cc1cccnc1 | 156 to 157 |
| CC(C)C[C@H](NC(=O)OC(C)(C)C)[C@@H](O)c1ncnn1C | 144 to 145 |

| Compound | melting point [°C] |
| --- | --- |
| CN(C)/C=C/c1cc(OC2CCN(C(=O)OC(C)(C)C)CC2)ccc1C#N | 135 to 137 |
| Oc1ccc(N2CCN(c3ccc4ccccc4n3)CC2)cc1 | 198 |
| CSc1ccc(N2CCOC2=O)cc1[N+](=O)[O-] | 180 |
| CSc1cccc(CNC(=O)c2nc3scc(COCc4ccc(C(=O)O)cc4)c3c(=O)[nH]2)c1 | 252 to 254 |
| CCOC(=O)c1cc2c(cn1)[nH]c1ccc(S(=O)(=O)N(C)C)cc12 | 310 to 311 |
| COCCn1nc(C)c(-c2ccc3c(c2)NC(=O)CO3)c1-c1ccc(F)cc1 | 174 |
| Nc1cn(C2CCN(c3c(F)c(N)c4c(=O)c(C(=O)O)cn(C5CC5)c4c3F)C2)nn1 (centres undefined) | 210 to 213 |
| CNc1c(S(=O)C(F)(F)F)c(C#N)nn1-c1c(Cl)cc(C(F)(F)F)cc1Cl (centres undefined) | 227 |
| COc1ccc(C(=O)Nc2ccc(C)c(Cl)c2)cc1N | 153 to 157 |
| O=C(O)c1cn(Cc2csnn2)c2cc(F)c(F)cc2c1=O | 257 to 261 |
| CCC(C)(C)c1ccc(OCCCCNC(=O)c2cc(Sc3nnnn3-c3ccccc3)c3ccccc3c2O)c(C(C)(C)CC)c1 | 147 to 148 |
| CC(C)(C)OC(=O)C[C@@H]1C[C@@H](COc2ccc(-c3ccc(C(=N)NC(=O)OCc4ccccc4)cc3)cc2)NC1=O | 136 to 140 |
| Cc1ccc(Cl)cc1N1C(=O)CN(c2ccccc2)C1=S | 168 to 170 |
| CCc1ccc(N/C=C/[N+](=O)[O-])c(C(=O)O)c1 | 190 to 191 |
| CC(=O)Oc1ccc([N+](=O)[O-])cc1C1(OC(C)=O)C(=O)c2ccccc2C1=O | 163 to 167 |
| O=c1[nH]c2cc(Cl)ccc2n(O)c1=O | > 300 |
| COc1ccc(Oc2c(C)cc([N+](=O)[O-])cc2C)cc1 | 117 to 120 |
| CCOCc1nc2c(N)nc(C)cc2n1CCOCc1ccccc1 | 127 to 128 |
| CC(=O)c1oc2c(sc3ccccc32)c1O | 196 to 197 |
| c1ccc(CNc2nc(-c3cccs3)nc3ccccc23)cc1 | 158 to 163 |
| O=C(O)C(CC1CCCC1)c1ccc([N+](=O)[O-])cc1 (centres undefined) | 119 to 125 |
| COC[C@@H]1CC(c2ccc(-c3ccc(N4C[C@H](Cn5ccnn5)OC4=O)cc3F)cn2)=NO1 | 161 |
| Nc1cc(-c2ccnc3c(C(=O)c4cccs4)cnn23)cs1 | 174 to 176 |
| NC1(CO)CCCNC1=O (centres undefined) | 145 |

From a melting point compilation (Tetko et al.; mined from patent text by program, amines drawn as free bases though some values may be those of a salt)
